According to patent publication US12601743B2, “Methods for treating drug resistant cancers” (The Regents of the University of California, priority 2017, dated 2026):
Entries after “also recorded” stand apart in the source; their conditions may differ.

What was measured:
[1] = system: YAP/TAZ expression in GBM cells; assay: YAP/TAZ expression after PAK4 inhibition (immunoblot); type: cell-based, human; conditions: FIG. 3H, FIG. 14C; U87MG, LN229
Method: Chemicals. Verteporfin (YAP inhibitor) was purchased from Sigma and used at the concentration of 0.5-10 μM for 24 hours. PF-03758309 (PAK4 inhibitor) was purchased from Chemietek and used at the concentration of 50 nM-1000 nM for 24 hours.
Immunoblotting. Proteins were extracted in RIPA buffer and quantified using the Pierce BCA kit (Thermo Fisher). 10-30 μg of protein was boiled in NuPage buffer (Thermo Fisher) and loaded onto a denaturing SDS-polyacrylamide gel (10%), transferred to PVDF membranes and blotted with anti-mouse or -rabbit HRP-conjugated secondary antibodies (Bio-Rad). The following antibodies were used for immunoblotting: β3 (Cell Signaling), Glut3 (Santa Cruz Biotechnology), YAP (Santa Cruz) YAP-XP (cell signaling), TAZ (Cell Signaling), PAK4 and pPAK4 (Cell Signaling), and Vinculin and β-actin (Sigma-Aldrich) as loading controls.

[2] = system: GBM14, GBM64 and GBM85 GSCs; assay: GSC cell viability (CELLTITER-GLO), Mayo Clinic models predicted Glut3 addicted; type: cell-based, human; conditions: Classical or Proneural, Glut3 addicted signature, FIG. 17B
Method: (§1) Cell viability assay. U87MG, LN229, and LN18 cells were seeded at 1K cells per well in black 96-well plates in DMEM medium (no glucose) with 10% dialyzed FBS±glucose (0-4.5 g/L). Cell viability was determined by Alamar Blue dye (Life Technologies) according to manufacturer's instructions. For GSCs, cells were seeded at 10K cells per well in white 96-well low attachment plates in GSC medium±glucose (0-4.5 g/L). Viable cell numbers were evaluated using a CELLTITER-GLO™ assay kit (Promega). Each condition consisted of, at least, three replicate wells and data were expressed as relative luciferase units or as the percentage of survival of control cells.

GBM150 and GBM59 GSCs = assay: GSC cell viability (CELLTITER-GLO), Mayo Clinic models with Glut3 non-addicted signature; type: cell-based, human; conditions: mesenchymal, FIG. 17B
Method: as §1

[3] = system: Ge738, GBM6, Ge970.2 and Ge885 GSCs; assay: GSC cell viability (CELLTITER-GLO), GSC with low β3/Glut3 expression; type: cell-based, human; conditions: GSC with low β3/Glut3 expression (Ge738, GBM6, Ge970.2, Ge885); FIG. 5D, 5H
Method: as §1

GBM26 and GBM12 GSCs = assay: GSC cell viability (CELLTITER-GLO), Mayo Clinic β3/Glut3-low models; type: cell-based, human; conditions: FIG. 17A-B
Method: as §1

Ge479 orthotopic tumors = assay: Orthotopic brain tumor xenograft survival, Ge479; type: in vivo, mice; conditions: Ge479 (Glut3 addicted); systemic treatment; FIG. 21
Method: Orthotopic brain tumor xenografts. Intracranial transplantation of U87MG or GSC (Ge518 and Ge479) into 6-8-week-old nu/nu nude immunocompromised mice (Charles River Labs) was performed in accordance with the UCSD Institutional Animal Care and Use Committee. U87MG cells bearing β3, Glut3 shRNA or shβ3 ectopically expressing Glut3 as well as shRNA control (15 mice per group) were orthotopically transplanted following washing and resuspension in PBS. Ge479 and Ge518 were orthotopically transplanted following washing and resuspension in DMEM/F12. Mice were treated with vehicle (PBS) or cilengitide (10 mg kg 1 or 30 mg kg 1; 8 mice per group) five days per week. Briefly, with a stereotaxic frame (Stoelting Co.), a small burr hole was made in the skull 2 mm anterior and 2 mm lateral to the bregma. A 31-gauge Hamilton needle/syringe was inserted 3 mm, and 0.25 μl/minute was dispensed (10^5 tumor cells in 2 μl media). A total of 1×10^5 and 3×10^5 cells in 2 μl was injected respectively for U87MG cells and GSCs respectively.

glioblastoma = conditions: GBM patients; phase III CENTRIC, phase II CORE (Stupp et al., 2014); cited from earlier work

Cc1nc(Nc2n[nH]c3c2CN(C(=O)N[C@H](CN(C)C)c2ccccc2)C3(C)C)c2sccc2n1 [PF-03758309]
YAP/TAZ expression [1]: decrease of YAP/TAZ expression

CC(C)[C@H]1C(=O)N[C@@H](CCCN=C(N)N)C(=O)NCC(=O)N[C@@H](CC(=O)O)C(=O)N[C@H](Cc2ccccc2)C(=O)N1C [cilengitide, 2-[(2S,5R,8S,11S)-5-benzyl-11-{3-[(diaminomethylidene)amino]propyl}-7-methyl-3,6,9,12,15-pentaoxo-8-(propan-2-yl)-1,4,7,10,13-pentaazacyclopentadecan-2-yl]acetic acid]
sensitivity (cell viability) [2]: largely sensitive; also recorded: sensitivity to integrin blockade
sensitivity (cell viability) (GBM150 and GBM59 GSCs): largely resistant; also recorded: not affected
effect on cell viability [3]: moderate enhancement of viability
effect on cell viability (GBM26 and GBM12 GSCs): no effect or a moderate enhancement of viability
survival of mice bearing orthotopic tumors (Ge479 orthotopic tumors): dramatically prolongs the survival
overall survival in clinical trials (glioblastoma): failed to meet overall survival endpoints; also recorded: failed to produce a significant overall survival benefit
